From paper PMC3914206 come the findings set out here.

Common to all, as to assay type: binding
Test [1] concerns the target T1, panel of 442 kinases (Homo sapiens, UniProt Q9H3Y6).
T1 construct: purchased KINOMEscan
The conditions noted are these: kinase SRMS; compound concentration 10 µM. The text has this:
(§1) We assessed the selectivity of members of this scaffold using the KINOMEscan methodology across a near comprehensive panel of 442 kinases [[18,27]].

The target in test [2] is T2, panel of 442 kinases (Homo sapiens, UniProt Q9C098).
T2 construct: purchased KINOMEscan
Conditions: Compound Concentration 10 µM.
Source text: as §1

In test [3] the target is T3, panel of 442 kinases (Homo sapiens, UniProt Q13233).
T3 construct: purchased KINOMEscan
The conditions noted are these: Compound Concentration 10 µM.
Source text: as §1

Structures are written as SMILES.

T2 sequence (Q9C098 whole entry): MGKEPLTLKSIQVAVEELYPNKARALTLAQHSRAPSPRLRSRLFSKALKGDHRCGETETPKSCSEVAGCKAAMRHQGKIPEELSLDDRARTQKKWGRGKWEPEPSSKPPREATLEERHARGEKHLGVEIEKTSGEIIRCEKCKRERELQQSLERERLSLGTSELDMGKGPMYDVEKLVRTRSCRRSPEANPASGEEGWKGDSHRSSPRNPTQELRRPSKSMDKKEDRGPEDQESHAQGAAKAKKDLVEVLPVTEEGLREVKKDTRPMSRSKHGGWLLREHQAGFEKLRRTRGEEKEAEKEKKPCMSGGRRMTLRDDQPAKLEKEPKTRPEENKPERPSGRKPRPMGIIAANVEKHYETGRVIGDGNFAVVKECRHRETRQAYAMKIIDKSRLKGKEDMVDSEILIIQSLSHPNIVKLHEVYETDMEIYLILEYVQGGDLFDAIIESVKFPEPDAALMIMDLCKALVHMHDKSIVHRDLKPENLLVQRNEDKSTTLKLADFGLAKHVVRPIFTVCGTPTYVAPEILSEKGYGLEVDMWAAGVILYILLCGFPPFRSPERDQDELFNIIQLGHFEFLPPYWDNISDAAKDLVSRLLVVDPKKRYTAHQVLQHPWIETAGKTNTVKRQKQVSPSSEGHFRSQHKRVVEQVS
T1 sequence (Q9H3Y6 whole entry): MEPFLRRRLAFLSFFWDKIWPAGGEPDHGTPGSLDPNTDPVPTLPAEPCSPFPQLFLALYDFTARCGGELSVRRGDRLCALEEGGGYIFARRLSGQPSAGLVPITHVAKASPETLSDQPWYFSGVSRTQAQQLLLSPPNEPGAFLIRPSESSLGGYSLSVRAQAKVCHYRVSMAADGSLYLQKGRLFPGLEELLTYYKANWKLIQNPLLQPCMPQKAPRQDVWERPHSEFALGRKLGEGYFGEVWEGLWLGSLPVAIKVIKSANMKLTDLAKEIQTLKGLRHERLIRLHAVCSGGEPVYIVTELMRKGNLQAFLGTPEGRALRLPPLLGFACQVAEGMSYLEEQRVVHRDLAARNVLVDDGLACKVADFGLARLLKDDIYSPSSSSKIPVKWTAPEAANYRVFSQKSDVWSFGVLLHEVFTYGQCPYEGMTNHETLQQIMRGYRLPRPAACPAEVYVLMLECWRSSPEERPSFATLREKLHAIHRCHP
T3 sequence (Q13233 whole entry): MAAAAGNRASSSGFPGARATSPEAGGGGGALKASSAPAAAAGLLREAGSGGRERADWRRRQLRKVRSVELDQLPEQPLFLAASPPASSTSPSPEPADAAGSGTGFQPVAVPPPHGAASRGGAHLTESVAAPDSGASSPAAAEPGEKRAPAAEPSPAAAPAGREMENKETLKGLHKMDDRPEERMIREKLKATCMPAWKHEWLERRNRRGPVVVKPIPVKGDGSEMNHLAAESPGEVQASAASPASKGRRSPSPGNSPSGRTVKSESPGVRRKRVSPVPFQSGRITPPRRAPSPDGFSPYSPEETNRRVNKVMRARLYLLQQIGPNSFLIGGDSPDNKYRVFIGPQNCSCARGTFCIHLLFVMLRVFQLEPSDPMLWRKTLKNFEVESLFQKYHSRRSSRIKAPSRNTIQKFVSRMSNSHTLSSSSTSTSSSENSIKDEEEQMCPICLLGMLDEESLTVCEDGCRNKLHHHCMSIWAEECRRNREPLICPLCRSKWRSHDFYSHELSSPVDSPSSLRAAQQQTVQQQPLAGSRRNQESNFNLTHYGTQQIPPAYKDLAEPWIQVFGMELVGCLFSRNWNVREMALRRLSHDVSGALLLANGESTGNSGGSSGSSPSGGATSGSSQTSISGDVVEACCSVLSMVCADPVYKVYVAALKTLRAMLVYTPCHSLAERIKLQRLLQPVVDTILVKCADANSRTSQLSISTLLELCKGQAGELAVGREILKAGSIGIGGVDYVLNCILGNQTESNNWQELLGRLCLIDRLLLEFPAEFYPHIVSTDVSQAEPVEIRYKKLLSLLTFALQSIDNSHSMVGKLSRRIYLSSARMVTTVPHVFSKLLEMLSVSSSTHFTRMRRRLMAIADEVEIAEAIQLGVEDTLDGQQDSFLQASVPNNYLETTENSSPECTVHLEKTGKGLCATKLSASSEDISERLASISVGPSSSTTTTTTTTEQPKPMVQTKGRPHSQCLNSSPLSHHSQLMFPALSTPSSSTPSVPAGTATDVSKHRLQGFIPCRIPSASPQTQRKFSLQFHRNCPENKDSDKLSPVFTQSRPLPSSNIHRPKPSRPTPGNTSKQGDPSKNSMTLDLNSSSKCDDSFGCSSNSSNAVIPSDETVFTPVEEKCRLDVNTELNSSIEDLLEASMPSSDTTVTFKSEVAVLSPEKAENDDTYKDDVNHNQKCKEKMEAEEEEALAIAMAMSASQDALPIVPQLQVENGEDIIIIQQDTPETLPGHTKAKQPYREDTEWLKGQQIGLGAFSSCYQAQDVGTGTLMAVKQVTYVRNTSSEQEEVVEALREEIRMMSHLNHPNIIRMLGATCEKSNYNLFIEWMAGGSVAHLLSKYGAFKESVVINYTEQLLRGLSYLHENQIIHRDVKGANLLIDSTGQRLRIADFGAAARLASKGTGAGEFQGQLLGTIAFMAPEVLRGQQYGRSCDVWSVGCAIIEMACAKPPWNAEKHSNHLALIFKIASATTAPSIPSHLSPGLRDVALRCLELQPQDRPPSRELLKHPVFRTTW

For the compound `COc1cc(C(=O)N2CCC(N3CCN(C)CC3)CC2)ccc1Nc1ncc2c(n1)N(C)c1ccccc1C(=O)N2C` [15 (LRRK2-IN-1)], the “% Ctrl, SRMS” value on panel of 442 kinases [1] is 77 % Ctrl. Besides, at panel of 442 kinases [2], the “KINOMEscan: DCAMKL3” value stood at 90. Besides, the “KINOMEscan: MAP3K1” value at panel of 442 kinases [3] is on record as 95.
For the compound `COc1cc(C(=O)N2CCC(N3CCN(C)CC3)CC2)ccc1Nc1ncc2c(n1)N1CCc3cccc(c31)C(=O)N2C` [Compound 24], on panel of 442 kinases [1], the “% Ctrl, SRMS” value stood at 100 % Ctrl.
On to `COc1cc(C(=O)N2CCC(N3CCN(C)CC3)CC2)ccc1Nc1ncc2c(n1)N(C1CCCC1)c1ccccc1C(=O)N2C` [Compound 25, 11-cyclopentyl-2-((2-methoxy-4-(4-(4-methylpiperazin-1-yl)piperidine-1-carbonyl)phenyl)amino)-5-methyl-5H-benzo[e]pyrimido[5,4-b][1,4]diazepin-6(11H)-one], for which the “% Ctrl, SRMS” value on panel of 442 kinases [1] stood at 100 % Ctrl. In addition, on panel of 442 kinases [2], the “KINOMEscan: DCAMKL3” value turned out to be 100. The “KINOMEscan: MAP3K1” value on panel of 442 kinases [3] stood at 100.
`CCOc1cc(C(=O)N2CCC(N3CCN(C)CC3)CC2)ccc1Nc1ncc2c(n1)N(C1CCCC1)c1ccccc1C(=O)N2C` [Compound 26]: the “% Ctrl, SRMS” value on panel of 442 kinases [1] is on record as 82 % Ctrl. Besides, the “KINOMEscan: DCAMKL3” value on panel of 442 kinases [2] was found to be 92. For the same compound, on panel of 442 kinases [3], the “KINOMEscan: MAP3K1” value is recorded as 93.
